Source: ChEMBL document CHEMBL1127643, “Mechanism-based design, synthesis, and in vitro antimalarial testing of new 4-methylated trioxanes structurally related to artemisinin: the importance of a carbon-centered radical for antimalarial activity” (J Med Chem, 1994)
In brackets after ≈: the same amount, converted by molar mass.

Tests used:
[1] = test system: Plasmodium falciparum; test: In vitro antimalarial activity against Plasmodium falciparum D6 Africa; type: functional, organism-based
[2] = test system: Plasmodium falciparum; test: In vitro antimalarial activity against Plasmodium falciparum W-2 Indochina; type: functional, organism-based

CO[C@H]1O[C@]2(C)OO[C@]13[C@H](CCO)CCC[C@@H]3C[C@@H]2C
IC50 [1]: 3.5 ng/mL (≈ 0.0122 µM)
IC50 [2]: 4.5 ng/mL (≈ 0.0157 µM)

C[C@@H]1CC[C@H]2[C@@H](C)C(=O)O[C@@H]3O[C@@]4(C)CC[C@@H]1[C@]32OO4 [ARTEMISININ]
IC50 [1]: 8 ng/mL (≈ 0.0283 µM)
IC50 [2]: 8 ng/mL (≈ 0.0283 µM)

CO[C@H]1O[C@]2(C)OO[C@]13[C@H](CCO)CCC[C@@H]3C[C@H]2C
IC50 [1]: > 500 ng/mL
IC50 [2]: > 500 ng/mL

CO[C@H]1O[C@]2(C)OO[C@]13[C@H](CCO)CCC[C@@H]3CC2(C)C
IC50 [1]: > 500 ng/mL
IC50 [2]: > 500 ng/mL

CO[C@H]1O[C@]2(C)OO[C@]13[C@H](CCOCc1ccccc1)CCC[C@@H]3CC2(C)C
IC50 [1]: > 500 ng/mL
IC50 [2]: > 500 ng/mL
